In patent US7863289B2, “Compounds and methods for kinase modulation, and indications therefor” (Plexxikon, Inc., priority 2006, dated 2011):

Tests used:
Assay type in all cases: biochemical
Fms = Fms (Homo sapiens, UniProt P07333); test: Kinase activity assay, Fms; conditions: under the test conditions employed; read-out: activity toward kinase Fms, IC50
Text: (§1) Assays for the activity of kinases, including, but not limited to, B-Raf, B-Raf V600E, B-Raf […] and c-Raf-1 are known in the art, for example as described in U.S. patent application Ser. No. 11/473,347 (see Iso, PCT publication WO2007002433), the disclosure of which is hereby incorporated by reference in its entirety.

B-Raf V600E = B-Raf V600E (Homo sapiens, UniProt P15056, V600E); test: Kinase activity assay, B-Raf V600E; conditions: under the test conditions employed; read-out: activity toward kinase B-Raf V600E, IC50
Text: as §1

Kdr = Kdr (Homo sapiens, UniProt P35968); test: Kinase activity assay, Kdr; conditions: under the test conditions employed; read-out: activity toward kinase Kdr, IC50
Text: as §1

c-Raf-1 = c-Raf-1 (Homo sapiens, UniProt P04049); test: Kinase activity assay, c-Raf-1; conditions: under the test conditions employed; read-out: activity toward kinase c-Raf-1, IC50
Text: as §1

B-Raf V600E/T529I = B-Raf V600E/T529I (Homo sapiens, UniProt P15056, T529I/V600E); test: Kinase activity assay, B-Raf V600E/T529I; conditions: under the test conditions employed; read-out: activity toward kinase B-Raf V600E/T529I, IC50
Text: as §1

B-Raf = B-Raf (Homo sapiens, UniProt P15056); test: Kinase activity assay, B-Raf; conditions: under the test conditions employed; read-out: activity toward kinase B-Raf, IC50
Text: as §1

Kit = Kit (Homo sapiens, UniProt P10721); test: Kinase activity assay, Kit; conditions: under the test conditions employed; read-out: activity toward kinase Kit, IC50
Text: as §1

Src = Src (Homo sapiens, UniProt P12931); test: Kinase activity assay, Src; conditions: under the test conditions employed; read-out: activity toward kinase Src, IC50
Text: as §1

Btk = Btk (Homo sapiens, UniProt Q06187); test: Kinase activity assay, Btk; conditions: under the test conditions employed; read-out: activity toward kinase Btk, IC50
Text: as §1

Flt1 = Flt1 (Homo sapiens, UniProt P17948); test: Kinase activity assay, Flt1; conditions: under the test conditions employed; read-out: activity toward kinase Flt1, IC50
Text: as §1

Jnk1 = Jnk1 (Homo sapiens, UniProt P45983); test: Kinase activity assay, Jnk1; conditions: under the test conditions employed; read-out: activity toward kinase Jnk1, IC50
Text: as §1

Measured: IC50

Btk, sequence (Q06187 whole entry): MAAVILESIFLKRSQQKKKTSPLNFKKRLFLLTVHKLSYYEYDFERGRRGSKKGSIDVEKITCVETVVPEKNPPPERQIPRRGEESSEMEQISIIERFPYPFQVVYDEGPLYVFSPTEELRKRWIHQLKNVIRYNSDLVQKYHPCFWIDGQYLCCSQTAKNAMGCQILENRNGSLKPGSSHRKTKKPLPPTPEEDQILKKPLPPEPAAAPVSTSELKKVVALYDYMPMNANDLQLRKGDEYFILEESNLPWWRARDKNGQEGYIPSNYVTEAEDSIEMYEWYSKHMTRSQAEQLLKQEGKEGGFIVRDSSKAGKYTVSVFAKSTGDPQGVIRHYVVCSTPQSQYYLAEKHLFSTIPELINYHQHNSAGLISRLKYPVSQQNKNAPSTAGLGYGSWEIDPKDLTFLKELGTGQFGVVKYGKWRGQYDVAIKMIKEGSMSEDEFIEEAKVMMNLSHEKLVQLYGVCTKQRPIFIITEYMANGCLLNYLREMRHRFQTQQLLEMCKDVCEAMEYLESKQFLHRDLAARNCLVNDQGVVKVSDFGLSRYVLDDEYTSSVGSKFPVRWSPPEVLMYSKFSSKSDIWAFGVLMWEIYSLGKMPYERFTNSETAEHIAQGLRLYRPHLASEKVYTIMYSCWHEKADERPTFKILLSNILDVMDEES
Src, sequence (P12931 whole entry): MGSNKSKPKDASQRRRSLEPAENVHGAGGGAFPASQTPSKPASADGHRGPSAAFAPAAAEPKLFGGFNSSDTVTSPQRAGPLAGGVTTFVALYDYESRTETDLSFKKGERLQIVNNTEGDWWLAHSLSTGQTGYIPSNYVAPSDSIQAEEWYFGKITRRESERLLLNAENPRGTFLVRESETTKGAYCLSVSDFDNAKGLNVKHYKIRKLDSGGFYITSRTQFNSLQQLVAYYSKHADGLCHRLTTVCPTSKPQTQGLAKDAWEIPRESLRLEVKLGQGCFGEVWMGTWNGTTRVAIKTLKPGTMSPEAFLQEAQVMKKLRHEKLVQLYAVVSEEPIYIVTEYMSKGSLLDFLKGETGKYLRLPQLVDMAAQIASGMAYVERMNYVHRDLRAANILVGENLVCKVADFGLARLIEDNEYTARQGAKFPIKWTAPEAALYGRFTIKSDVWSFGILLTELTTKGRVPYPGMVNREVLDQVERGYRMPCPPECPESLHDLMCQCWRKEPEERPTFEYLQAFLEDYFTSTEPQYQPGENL
B-Raf V600E/T529I, sequence (P15056 whole entry T529I/V600E): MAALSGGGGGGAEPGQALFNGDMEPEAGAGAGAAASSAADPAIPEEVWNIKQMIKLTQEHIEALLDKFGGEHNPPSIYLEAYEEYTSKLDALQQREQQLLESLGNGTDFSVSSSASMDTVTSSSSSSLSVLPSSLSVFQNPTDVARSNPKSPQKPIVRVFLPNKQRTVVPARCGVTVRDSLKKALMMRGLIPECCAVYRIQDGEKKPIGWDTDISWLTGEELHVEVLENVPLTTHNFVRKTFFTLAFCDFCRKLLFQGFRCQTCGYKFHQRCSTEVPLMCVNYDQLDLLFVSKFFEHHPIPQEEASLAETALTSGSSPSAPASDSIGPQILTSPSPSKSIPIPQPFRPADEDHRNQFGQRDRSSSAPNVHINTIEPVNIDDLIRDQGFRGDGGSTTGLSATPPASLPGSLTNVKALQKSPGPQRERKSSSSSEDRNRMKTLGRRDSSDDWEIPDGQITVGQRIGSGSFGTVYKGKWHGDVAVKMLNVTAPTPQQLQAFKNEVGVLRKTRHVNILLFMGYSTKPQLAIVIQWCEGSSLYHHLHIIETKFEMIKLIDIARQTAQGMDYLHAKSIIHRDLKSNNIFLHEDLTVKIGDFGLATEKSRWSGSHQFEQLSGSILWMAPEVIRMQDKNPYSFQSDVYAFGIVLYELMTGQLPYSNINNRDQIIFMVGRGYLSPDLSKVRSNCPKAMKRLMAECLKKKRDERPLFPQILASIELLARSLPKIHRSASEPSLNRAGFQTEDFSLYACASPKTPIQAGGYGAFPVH
Kdr, sequence (P35968 20-1356): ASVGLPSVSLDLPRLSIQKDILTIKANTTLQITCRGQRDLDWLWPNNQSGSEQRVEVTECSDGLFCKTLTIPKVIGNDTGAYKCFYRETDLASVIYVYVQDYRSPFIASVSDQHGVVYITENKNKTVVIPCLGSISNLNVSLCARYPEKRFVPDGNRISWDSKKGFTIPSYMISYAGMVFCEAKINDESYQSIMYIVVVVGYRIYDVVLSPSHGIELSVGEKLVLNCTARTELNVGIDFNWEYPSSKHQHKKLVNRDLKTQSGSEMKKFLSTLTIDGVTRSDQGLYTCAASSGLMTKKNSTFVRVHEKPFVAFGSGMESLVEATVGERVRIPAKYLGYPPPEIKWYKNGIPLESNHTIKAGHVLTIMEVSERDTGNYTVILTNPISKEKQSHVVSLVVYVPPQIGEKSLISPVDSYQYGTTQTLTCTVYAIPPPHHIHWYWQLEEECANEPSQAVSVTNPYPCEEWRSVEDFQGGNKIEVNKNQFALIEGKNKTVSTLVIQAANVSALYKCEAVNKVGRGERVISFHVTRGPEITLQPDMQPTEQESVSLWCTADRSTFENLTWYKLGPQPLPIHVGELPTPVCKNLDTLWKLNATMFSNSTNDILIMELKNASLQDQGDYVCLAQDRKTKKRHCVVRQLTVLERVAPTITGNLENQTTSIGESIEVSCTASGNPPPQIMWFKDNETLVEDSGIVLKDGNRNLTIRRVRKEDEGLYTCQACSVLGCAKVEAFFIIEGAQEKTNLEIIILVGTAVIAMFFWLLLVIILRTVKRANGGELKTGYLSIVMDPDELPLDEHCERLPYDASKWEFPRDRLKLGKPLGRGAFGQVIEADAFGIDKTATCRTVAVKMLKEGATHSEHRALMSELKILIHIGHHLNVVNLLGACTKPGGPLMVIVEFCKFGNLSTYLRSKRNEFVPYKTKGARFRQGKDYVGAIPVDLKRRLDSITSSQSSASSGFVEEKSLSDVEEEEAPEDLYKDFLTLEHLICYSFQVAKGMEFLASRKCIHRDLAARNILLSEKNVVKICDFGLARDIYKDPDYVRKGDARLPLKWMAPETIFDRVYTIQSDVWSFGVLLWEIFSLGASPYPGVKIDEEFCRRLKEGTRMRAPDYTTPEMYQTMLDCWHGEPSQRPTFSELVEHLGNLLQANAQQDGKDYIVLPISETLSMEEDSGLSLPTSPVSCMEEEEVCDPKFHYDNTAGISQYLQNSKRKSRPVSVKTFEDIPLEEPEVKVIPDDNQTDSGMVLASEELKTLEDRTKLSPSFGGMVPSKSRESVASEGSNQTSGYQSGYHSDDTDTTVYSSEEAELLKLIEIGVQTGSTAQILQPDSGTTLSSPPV
Flt1, sequence (P17948 27-1338): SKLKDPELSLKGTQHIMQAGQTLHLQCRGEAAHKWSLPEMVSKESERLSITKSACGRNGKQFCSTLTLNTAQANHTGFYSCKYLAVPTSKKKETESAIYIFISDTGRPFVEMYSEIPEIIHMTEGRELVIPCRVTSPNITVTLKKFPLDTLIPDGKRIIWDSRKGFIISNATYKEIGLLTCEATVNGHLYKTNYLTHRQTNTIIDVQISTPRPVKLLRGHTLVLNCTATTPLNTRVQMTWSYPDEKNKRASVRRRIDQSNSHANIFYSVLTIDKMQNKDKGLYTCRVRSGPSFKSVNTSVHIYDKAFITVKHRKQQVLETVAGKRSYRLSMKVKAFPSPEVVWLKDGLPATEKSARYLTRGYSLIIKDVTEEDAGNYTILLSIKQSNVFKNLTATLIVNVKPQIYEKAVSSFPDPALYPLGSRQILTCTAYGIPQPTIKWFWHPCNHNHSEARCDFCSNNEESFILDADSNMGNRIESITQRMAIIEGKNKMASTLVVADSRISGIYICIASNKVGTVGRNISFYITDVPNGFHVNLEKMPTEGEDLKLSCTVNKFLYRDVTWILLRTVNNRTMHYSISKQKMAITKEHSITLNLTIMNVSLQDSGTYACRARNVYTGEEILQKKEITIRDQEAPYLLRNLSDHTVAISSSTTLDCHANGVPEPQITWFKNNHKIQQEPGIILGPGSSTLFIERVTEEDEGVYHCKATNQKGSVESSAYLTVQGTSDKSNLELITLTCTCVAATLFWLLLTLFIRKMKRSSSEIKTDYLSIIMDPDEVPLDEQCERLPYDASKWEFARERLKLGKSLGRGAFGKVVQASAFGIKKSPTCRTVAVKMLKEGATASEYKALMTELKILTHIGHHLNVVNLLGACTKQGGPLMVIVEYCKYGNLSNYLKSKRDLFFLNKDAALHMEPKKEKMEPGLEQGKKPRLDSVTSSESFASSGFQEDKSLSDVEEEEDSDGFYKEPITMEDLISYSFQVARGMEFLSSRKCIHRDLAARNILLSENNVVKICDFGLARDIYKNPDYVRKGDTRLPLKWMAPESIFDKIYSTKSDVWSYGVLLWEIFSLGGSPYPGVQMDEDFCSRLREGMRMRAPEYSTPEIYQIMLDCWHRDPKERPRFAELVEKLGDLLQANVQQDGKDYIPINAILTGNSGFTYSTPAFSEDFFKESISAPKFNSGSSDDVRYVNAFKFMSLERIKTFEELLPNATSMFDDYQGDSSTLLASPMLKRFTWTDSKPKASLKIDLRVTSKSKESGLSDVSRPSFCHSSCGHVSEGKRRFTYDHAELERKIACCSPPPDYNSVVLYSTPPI
B-Raf, sequence (P15056 whole entry): as the sequence (P15056 whole entry T529I/V600E) above, with I529T, E600V counted along it
B-Raf V600E, sequence (P15056 whole entry V600E): as the sequence (P15056 whole entry T529I/V600E) above, with I529T counted along it

O=C(c1c(F)ccc(NS(=O)(=O)c2ccc(-c3cnco3)s2)c1F)c1c[nH]c2ncc(Cl)cc12 [Compound P-0003, 5-Oxazol-5-yl-thiophene-2-sulfonic acid [3-(5-chloro-1H-pyrrolo[2,3-b]pyridine-3-carbonyl)-2,4-difluoro-phenyl]-amide]
not listed: Btk | Flt1 | Jnk1
≤ 10 µM: all other assays above

CCCc1ccc(S(=O)(=O)Nc2ccc(F)c(C(=O)c3c[nH]c4ncc(-c5cnn(C)c5)cc34)c2F)cc1 [Compound P-0021, N-{2,4-Difluoro-3-[5-(1-methyl-1H-pyrazol-4-yl)-1H-pyrrolo[2,3-b]pyridine-3-carbonyl]-phenyl}-4-propyl-benzenesulfonamide]
not listed: B-Raf V600E/T529I | Flt1 | Jnk1
≤ 10 µM: all other assays above

N#Cc1cnc2[nH]cc(C(=O)c3c(F)ccc(NS(=O)(=O)c4ccc(C(F)(F)F)cc4)c3F)c2c1 [Compound P-0031, N-[3-(5-Cyano-1H-pyrrolo[2,3-b]pyridine-3-carbonyl)-2,4-difluoro-phenyl]-4-trifluoromethyl-benzenesulfonamide]
≤ 10 µM: B-Raf V600E | c-Raf-1 | B-Raf | Src | Flt1

O=C(c1c(F)ccc(NS(=O)(=O)c2ccc(-c3ccno3)s2)c1F)c1c[nH]c2ncc(Cl)cc12 [Compound P-0006, 5-Isoxazol-5-yl-thiophene-2-sulfonic acid [3-(5-chloro-1H-pyrrolo[2,3-b]pyridine-3-carbonyl)-2,4-difluoro-phenyl]-amide]
not listed: Kdr | Btk | Flt1 | Jnk1
≤ 10 µM: all other assays above

Cc1cnc(-c2cnc3[nH]cc(C(=O)c4c(F)ccc(NS(=O)(=O)c5cccc(OC(F)F)c5)c4F)c3c2)[nH]1 [Compound P-0024, 3-Difluoromethoxy-N-{2,4-difluoro-3-[5-(5-methyl-1H-imidazol-2-yl)-1H-pyrrolo[2,3-b]pyridine-3-carbonyl]-phenyl}-benzenesulfonamide]
not listed: c-Raf-1 | B-Raf V600E/T529I | Flt1 | Jnk1
≤ 10 µM: all other assays above

CC(C)c1ccc(S(=O)(=O)Nc2ccc(F)c(C(=O)c3c[nH]c4ncc(-c5cnn(C)c5)cc34)c2F)cc1 [Compound P-0022, N-{2,4-Difluoro-3-[5-(1-methyl-1H-pyrazol-4-yl)-1H-pyrrolo[2,3-b]pyridine-3-carbonyl]-phenyl}-4-isopropyl-benzenesulfonamide]
not listed: B-Raf V600E/T529I | Flt1 | Jnk1
≤ 10 µM: all other assays above

Cc1cnc(-c2cnc3[nH]cc(C(=O)c4c(F)ccc(NS(=O)(=O)c5ccc(C(F)(F)F)cc5)c4F)c3c2)[nH]1 [Compound P-0025, N-{2,4-Difluoro-3-[5-(5-methyl-1H-imidazol-2-yl)-1H-pyrrolo[2,3-b]pyridine-3-carbonyl]-phenyl}-4-trifluoromethyl-benzenesulfonamide]
not listed: Fms | B-Raf V600E/T529I | Btk
≤ 10 µM: all other assays above

O=C(c1c(F)ccc(NS(=O)(=O)c2ccc3oc(=O)ccc3c2)c1F)c1c[nH]c2ncc(Cl)cc12 [Compound P-0005, 2-Oxo-2H-chromene-6-sulfonic acid [3-(5-chloro-1H-pyrrolo[2,3-b]pyridine-3-carbonyl)-2,4-difluoro-phenyl]-amide]
not listed: Btk | Flt1 | Jnk1
≤ 10 µM: all other assays above

O=C(c1c(F)ccc(NS(=O)(=O)c2ccc3nsnc3c2)c1F)c1c[nH]c2ncc(Cl)cc12 [Compound P-0013, Benzo[1,2,5]thiadiazoe-5-sulfonic acid [3-(5-chloro-1H-pyrrolo[2,3-b]pyridine-3-carbonyl)-2,4-difluoro-phenyl]-amide]
not listed: B-Raf V600E/T529I | Flt1 | Jnk1
≤ 10 µM: all other assays above

Cc1c[nH]c(-c2cnc3[nH]cc(C(=O)c4c(F)ccc(NS(=O)(=O)c5ccc(C(C)C)cc5)c4F)c3c2)n1 [Compound P-0019, N-{2,4-Difluoro-3-[5-(4-methyl-1H-imidazol-2-yl)-1H-pyrrolo[2,3-b]pyridine-3-carbonyl]-phenyl}-4-isopropyl-benzenesulfonamide]
not listed: Fms | B-Raf V600E/T529I | Btk | Flt1
≤ 10 µM: all other assays above

CCCc1ccc(S(=O)(=O)Nc2ccc(F)c(C(=O)c3c[nH]c4ncc(-c5ncc(C)[nH]5)cc34)c2F)cc1 [Compound P-0023, N-{2,4-Difluoro-3-[5-(5-methyl-1H-imidazol-2-yl)-1H-pyrrolo[2,3-b]pyridine-3-carbonyl]-phenyl}-4-propyl-benzenesulfonamide]
not listed: B-Raf V600E/T529I | Flt1 | Jnk1
≤ 10 µM: all other assays above

CCCc1ccc(S(=O)(=O)Nc2ccc(F)c(C(=O)c3c[nH]c4ncc(-c5nccn5C)cc34)c2F)cc1 [Compound P-0026, N-{2,4-Difluoro-3-[5-(1-methyl-1H-imidazol-2-yl)-1H-pyrrolo[2,3-b]pyridine-3-carbonyl]-phenyl}-4-propyl-benzenesulfonamide]
≤ 10 µM: Kdr | B-Raf | Kit | Src | Flt1
